The values that follow come from patent publication US10800791B2, “Triazole ACC inhibitors and uses thereof” (Gilead Apollo, LLC, priority 2015, dated 2020).

In brackets after ≈: the same amount, converted by molar mass. Like-named read-outs stand apart in the source and are kept apart here.

One assay deals with C. albicans. The experiment in a line: Antifungal Activity Assay (broth microtiter MIC), C. albicans. The assay is classed as cell-based, Candida albicans. The following applies: 3 replicates, MIC recorded at 48 h; for MIC: Candida albicans, ATCC90028, 48 h, ATCC 90028, read-out: MIC, C. albicans ATCC 90028. As for the experimental part:
(§1) Compounds of the present invention were evaluated in an Antifungal Activity Assay. An exemplary procedure for the assay, which measures the susceptibility of various Candida species to antifungal compounds, follows. Compounds to be tested (including fluconazole and amphotericin B) were dissolved in DMSO to obtain a solution having a concentration of 1 mg/mL. These stock solutions were sterile filtered using a 0.22 um nylon syringe filter, then diluted in sterile water to achieve a final concentration of 128 μg/mL.
(§2) All species were grown from frozen stock by directly plating on to freshly prepared Sabouraud Dextrose agar (BD, Difco) and incubated overnight in ambient air at 35° C. for 24 h. A direct suspension was prepared in RPMI 1640+MOPS (Lonza, Biowhittaker) by taking individual colonies from the overnight cultures using sterile swabs soaked in sterile saline. The concentration of the suspension was determined using pre-determined standard curves. These suspensions were then diluted down to 5×10^3 CFU/mL to achieve a final concentration of 2.5×10^3 CFU/mL once added to the microtiter plate as per CLSI guidelines (M27-A3, Vol. 28 No. 14).
(§3) Broth microtiter MIC challenge plates were prepared following CLSI guidelines (M27-A3, Vol. 28 No. 14). The original CLSI guidelines focused on reading Candida MICs after 48 h of incubation. As reading after only 24 h offers a clear advantage of patient care, QC limits are being established for all drugs at 24 h. That being said there are no known interpretive breakpoints for amphotericin B at 24 h and the current fluconazole interpretive breakpoints are based on a 48 h reading. The MICs for the test compounds were recorded at 48 h. All MIC determinations were achieved by visually comparing the growth found in the antibiotic challenged wells to that of the growth control.

In a further assay the test system is C. krusei. The assay is described as follows: Antifungal Activity Assay (broth microtiter MIC), C. krusei. The assay is classed as cell-based, Candida krusei. Conditions: 3 replicates, MIC recorded at 48 h; for MIC: Pichia kudriavzevii, ATCC6258, 48 h, ATCC 6258, read-out: MIC, C. krusei ATCC 6258. Here is the method: as §1, §2, §3
A further assay deals with C. parapsilosis. The assay is described as follows: Antifungal Activity Assay (broth microtiter MIC), C. parapsilosis. The assay is classed as cell-based, Candida parapsilosis. The following applies: 3 replicates, MIC recorded at 48 h; for MIC: Lodderomyces parapsilosis, ATCC22019, 48 h, ATCC 22019, read-out: MIC, C. parapsilosis ATCC 22019. Here is the method: as §1, §2, §3

A further assay has as its target human (hACC2) (Homo sapiens, UniProt O00763). The assay is described as follows: In vitro ACC inhibition assay (ADP-Glo), hACC2. The assay is classed as biochemical. Conditions: 5 nM ACC2, 20 μM ATP, 20 μM acetyl-CoA. As for the experimental part:
The detailed procedure is as follows. […] 10 μL ADP glo reagent was added. […] 20 μL kinase detection reagent was added.

The next assay addresses fungal (fACC2) (UniProt Q00955). Conditions: read-out: fACC2 (in vitro ACC2 Inhibition Assay, IC50), ADP-Glo, 5 nM ACC2, 20 μM ATP, 20 μM acetyl-CoA. For orientation: ADP-Glo turns the ADP formed in a reaction into a luminescent signal.

One may read the MIC as the lowest concentration found to suppress growth. In general, IC50 refers to the concentration needed to halve the response being measured.

Chain of fungal (fACC2) (Q00955 whole entry): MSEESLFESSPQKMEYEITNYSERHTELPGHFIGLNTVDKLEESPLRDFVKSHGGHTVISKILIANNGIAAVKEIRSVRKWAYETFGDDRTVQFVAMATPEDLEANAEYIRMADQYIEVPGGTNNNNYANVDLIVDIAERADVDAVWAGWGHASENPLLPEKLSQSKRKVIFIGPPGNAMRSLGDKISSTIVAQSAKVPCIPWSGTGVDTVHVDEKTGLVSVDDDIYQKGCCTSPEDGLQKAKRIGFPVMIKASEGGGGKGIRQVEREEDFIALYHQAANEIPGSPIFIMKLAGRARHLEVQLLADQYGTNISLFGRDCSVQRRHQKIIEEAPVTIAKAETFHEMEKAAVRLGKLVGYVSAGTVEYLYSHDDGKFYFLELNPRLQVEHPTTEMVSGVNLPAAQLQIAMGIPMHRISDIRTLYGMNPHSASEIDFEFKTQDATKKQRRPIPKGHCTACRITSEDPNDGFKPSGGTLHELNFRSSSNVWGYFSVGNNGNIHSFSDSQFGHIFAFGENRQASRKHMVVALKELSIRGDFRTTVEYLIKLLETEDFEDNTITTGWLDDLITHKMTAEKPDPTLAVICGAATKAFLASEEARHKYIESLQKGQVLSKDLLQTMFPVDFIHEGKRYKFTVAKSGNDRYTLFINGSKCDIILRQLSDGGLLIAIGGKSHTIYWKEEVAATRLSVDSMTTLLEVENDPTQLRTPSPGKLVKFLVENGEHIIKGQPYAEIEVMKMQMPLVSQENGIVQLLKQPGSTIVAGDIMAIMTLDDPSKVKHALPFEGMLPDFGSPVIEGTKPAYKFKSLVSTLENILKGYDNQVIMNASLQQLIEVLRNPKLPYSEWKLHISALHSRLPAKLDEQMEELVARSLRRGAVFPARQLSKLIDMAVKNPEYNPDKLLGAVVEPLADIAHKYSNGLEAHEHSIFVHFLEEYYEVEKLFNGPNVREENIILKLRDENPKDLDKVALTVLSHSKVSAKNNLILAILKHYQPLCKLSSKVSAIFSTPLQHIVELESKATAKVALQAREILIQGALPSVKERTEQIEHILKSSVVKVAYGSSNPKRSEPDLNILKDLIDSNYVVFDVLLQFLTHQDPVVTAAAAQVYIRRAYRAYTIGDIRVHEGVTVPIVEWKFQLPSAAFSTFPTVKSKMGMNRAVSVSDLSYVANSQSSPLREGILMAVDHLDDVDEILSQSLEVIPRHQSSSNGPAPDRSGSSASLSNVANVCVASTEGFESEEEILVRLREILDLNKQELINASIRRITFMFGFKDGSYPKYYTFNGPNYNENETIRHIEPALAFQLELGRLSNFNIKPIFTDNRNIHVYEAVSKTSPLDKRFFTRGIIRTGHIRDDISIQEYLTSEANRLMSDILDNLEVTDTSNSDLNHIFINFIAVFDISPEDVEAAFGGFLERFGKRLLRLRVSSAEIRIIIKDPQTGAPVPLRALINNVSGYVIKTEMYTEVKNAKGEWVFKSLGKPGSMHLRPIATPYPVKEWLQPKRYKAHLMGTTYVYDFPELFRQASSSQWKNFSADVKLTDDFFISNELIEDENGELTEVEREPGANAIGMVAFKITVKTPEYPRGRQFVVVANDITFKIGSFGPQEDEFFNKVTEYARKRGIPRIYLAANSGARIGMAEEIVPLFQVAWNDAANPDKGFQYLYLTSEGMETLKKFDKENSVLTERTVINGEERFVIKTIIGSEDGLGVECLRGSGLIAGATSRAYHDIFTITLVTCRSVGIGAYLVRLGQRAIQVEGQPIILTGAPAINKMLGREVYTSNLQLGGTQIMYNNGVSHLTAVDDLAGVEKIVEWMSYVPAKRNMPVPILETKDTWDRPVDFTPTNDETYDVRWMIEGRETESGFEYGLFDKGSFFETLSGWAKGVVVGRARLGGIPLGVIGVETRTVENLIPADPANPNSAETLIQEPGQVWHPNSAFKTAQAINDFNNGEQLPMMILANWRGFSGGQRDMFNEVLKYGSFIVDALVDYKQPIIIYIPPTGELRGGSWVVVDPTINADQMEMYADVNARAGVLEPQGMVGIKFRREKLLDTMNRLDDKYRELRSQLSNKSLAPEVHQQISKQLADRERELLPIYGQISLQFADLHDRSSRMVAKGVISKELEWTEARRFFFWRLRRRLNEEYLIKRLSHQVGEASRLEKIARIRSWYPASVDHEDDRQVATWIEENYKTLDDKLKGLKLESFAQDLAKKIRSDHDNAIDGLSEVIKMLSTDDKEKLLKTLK
Chain of human (hACC2) (O00763 whole entry): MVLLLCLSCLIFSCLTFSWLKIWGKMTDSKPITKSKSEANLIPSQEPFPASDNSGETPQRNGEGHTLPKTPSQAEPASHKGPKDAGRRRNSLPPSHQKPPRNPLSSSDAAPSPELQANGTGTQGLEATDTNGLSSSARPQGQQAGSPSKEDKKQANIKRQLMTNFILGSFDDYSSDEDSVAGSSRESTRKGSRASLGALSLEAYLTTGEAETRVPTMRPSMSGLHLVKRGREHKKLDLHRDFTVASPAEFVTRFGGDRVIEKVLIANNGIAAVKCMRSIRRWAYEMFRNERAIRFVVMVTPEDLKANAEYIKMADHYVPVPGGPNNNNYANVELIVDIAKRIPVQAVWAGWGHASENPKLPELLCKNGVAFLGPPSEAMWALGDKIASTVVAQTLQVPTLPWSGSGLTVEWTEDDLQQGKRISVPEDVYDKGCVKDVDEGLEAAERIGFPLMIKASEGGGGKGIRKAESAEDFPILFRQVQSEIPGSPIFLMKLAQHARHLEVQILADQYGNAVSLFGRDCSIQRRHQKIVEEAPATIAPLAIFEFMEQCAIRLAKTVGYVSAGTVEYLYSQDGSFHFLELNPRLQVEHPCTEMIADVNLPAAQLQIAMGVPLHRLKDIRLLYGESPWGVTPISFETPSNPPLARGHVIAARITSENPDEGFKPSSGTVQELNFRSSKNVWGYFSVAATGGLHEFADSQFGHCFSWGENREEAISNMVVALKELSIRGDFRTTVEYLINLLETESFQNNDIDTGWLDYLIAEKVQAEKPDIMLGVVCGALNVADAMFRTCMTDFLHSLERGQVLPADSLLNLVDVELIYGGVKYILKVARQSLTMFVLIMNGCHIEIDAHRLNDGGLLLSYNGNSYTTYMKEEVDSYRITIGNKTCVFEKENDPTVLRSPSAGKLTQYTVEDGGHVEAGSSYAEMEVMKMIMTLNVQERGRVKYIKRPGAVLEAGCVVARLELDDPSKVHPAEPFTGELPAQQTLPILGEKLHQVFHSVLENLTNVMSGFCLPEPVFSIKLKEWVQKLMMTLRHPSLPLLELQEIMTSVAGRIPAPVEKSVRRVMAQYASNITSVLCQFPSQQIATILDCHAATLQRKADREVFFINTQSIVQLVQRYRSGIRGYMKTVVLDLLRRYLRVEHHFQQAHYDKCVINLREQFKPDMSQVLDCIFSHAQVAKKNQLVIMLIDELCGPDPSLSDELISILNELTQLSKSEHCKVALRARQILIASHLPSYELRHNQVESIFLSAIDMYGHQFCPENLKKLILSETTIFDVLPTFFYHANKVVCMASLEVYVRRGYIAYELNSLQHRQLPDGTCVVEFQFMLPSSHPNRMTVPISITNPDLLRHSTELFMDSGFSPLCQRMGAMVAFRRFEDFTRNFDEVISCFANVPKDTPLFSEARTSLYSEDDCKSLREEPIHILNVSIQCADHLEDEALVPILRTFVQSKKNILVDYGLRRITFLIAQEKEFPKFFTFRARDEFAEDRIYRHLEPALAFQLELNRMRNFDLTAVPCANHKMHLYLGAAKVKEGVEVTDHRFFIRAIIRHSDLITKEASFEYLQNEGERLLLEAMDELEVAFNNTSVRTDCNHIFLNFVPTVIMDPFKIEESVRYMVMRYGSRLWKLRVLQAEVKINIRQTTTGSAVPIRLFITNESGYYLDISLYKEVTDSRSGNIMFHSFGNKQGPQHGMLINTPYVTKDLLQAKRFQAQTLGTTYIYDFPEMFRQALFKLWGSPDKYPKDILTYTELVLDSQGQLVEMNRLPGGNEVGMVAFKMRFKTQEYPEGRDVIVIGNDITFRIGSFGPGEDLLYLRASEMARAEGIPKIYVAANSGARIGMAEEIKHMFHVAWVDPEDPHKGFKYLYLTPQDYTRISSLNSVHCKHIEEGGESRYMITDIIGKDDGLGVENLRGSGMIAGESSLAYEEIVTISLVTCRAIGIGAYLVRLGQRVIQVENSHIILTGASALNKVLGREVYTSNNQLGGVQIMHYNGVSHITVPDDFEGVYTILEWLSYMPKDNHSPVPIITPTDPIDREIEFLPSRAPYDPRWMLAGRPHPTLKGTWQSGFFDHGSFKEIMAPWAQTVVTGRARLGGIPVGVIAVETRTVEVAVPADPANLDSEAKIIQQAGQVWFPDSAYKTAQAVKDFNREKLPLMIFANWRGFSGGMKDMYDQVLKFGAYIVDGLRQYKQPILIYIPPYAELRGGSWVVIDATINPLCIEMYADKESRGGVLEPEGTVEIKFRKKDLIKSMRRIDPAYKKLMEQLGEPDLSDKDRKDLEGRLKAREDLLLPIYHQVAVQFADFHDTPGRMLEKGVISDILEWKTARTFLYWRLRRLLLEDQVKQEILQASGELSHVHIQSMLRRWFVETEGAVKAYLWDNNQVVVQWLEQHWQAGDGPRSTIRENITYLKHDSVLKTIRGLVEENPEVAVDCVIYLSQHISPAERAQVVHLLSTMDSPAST

Turning to `COc1ccc(F)cc1[C@H](Cn1c(=O)n(C(C)(C)C(=O)NC2CCCCC2)c(=O)c2c(C)c(-n3nccn3)sc21)OCC(C)=O` [Compound I-99], the MIC with C. albicans (Table 3a) was in the range of 0.25 to 1 µg/mL (≈ 0.39 to 1.56 µM); with C. albicans (Table 3b (additional results)), 1.01 to 2 µg/mL (≈ 1.58 to 3.12 µM); in the assay with C. krusei (Table 3a), 0.06 to 0.24 µg/mL (≈ 0.0936 to 0.375 µM); in the assay with C. krusei (Table 3b (additional results)), 0.25 to 1 µg/mL (≈ 0.39 to 1.56 µM); in the assay on C. parapsilosis (Table 3a), 0.25 to 1 µg/mL (≈ 0.39 to 1.56 µM); in the assay on C. parapsilosis (Table 3b (additional results)), 0.25 to 1 µg/mL (≈ 0.39 to 1.56 µM). In addition, the IC50 against human (hACC2) (Table 2a) is 1 to 5 nM; against human (hACC2) (Table 2b, additional results) it was 1 to 5 nM; at fungal (fACC2) (Table 2a), 1 to 5 nM; at fungal (fACC2) (Table 2b, additional results) it was 1 to 5 nM.

Regarding `COCCO[C@@H](Cn1c(=O)n(C(C)(C)C(=O)NC2CCC2)c(=O)c2c(C)c(-n3nccn3)sc21)c1cc(F)ccc1OC` [Compound I-100], the MIC with C. albicans (Table 3b (additional results)) was 2.01 to 4 µg/mL (≈ 3.27 to 6.51 µM); in the assay on C. parapsilosis (Table 3b (additional results)) it was 0.25 to 1 µg/mL (≈ 0.407 to 1.63 µM). For the same molecule, the “MIC, C. albicans ATCC 90028” value in the assay with C. albicans (Table 3a) is given as “A (MIC of 0.25-1.0 μg/mL)”. The “MIC, C. krusei ATCC 6258” value is “AA (MIC of 0.06-0.24 μg/mL)” in the assay with C. krusei (Table 3a) and “A (MIC of 0.25-1.0 μg/mL)” with C. krusei (Table 3b (additional results)). In addition, in the assay with C. parapsilosis (Table 3a), the “MIC, C. parapsilosis ATCC 22019” value was “A (MIC of 0.25-1.0 μg/mL)”. Also, the half-inhibitory concentration (IC50) against human (hACC2) (Table 2a) was 1 to 5 nM; against human (hACC2) (Table 2b, additional results) it was 1 to 5 nM; on fungal (fACC2) (Table 2a), 1 to 5 nM; at fungal (fACC2) (Table 2b, additional results), 1 to 5 nM.

As to `COc1ccccc1[C@H](Cn1c(=O)n(C(C)(C)C(=O)N2CC=CC2)c(=O)c2c(C)c(-n3nccn3)sc21)OC1CCOCC1` [Compound I-101], the MIC is 0.25 to 1 µg/mL (≈ 0.403 to 1.61 µM) in the assay with C. albicans (Table 3a); 1.01 to 2 µg/mL (≈ 1.63 to 3.22 µM) with C. albicans (Table 3b (additional results)); 0.25 to 1 µg/mL (≈ 0.403 to 1.61 µM) in the assay with C. krusei (Table 3a); 1.01 to 2 µg/mL (≈ 1.63 to 3.22 µM) with C. krusei (Table 3b (additional results)); 0.25 to 1 µg/mL (≈ 0.403 to 1.61 µM) with C. parapsilosis (Table 3a); 1.01 to 2 µg/mL (≈ 1.63 to 3.22 µM) in the assay with C. parapsilosis (Table 3b (additional results)). For the same molecule, the IC50 at human (hACC2) (Table 2a) fell in the range of 5 to 10 nM; at human (hACC2) (Table 2b, additional results), 5 to 10 nM; at fungal (fACC2) (Table 2a) it was 1 to 5 nM; at fungal (fACC2) (Table 2b, additional results), 1 to 5 nM.

Take `COCCO[C@@H](Cn1c(=O)n(C(C)(C)C(=O)NC2CCC2)c(=O)c2c(C)c(-n3nccn3)sc21)c1cc(F)ccc1OC` [Compound I-102]: the “MIC, C. albicans ATCC 90028” value in the assay on C. albicans (Table 3a) is recorded as “A (MIC of 0.25-1.0 μg/mL)”; in the assay with C. albicans (Table 3b (additional results)) it was “C (MIC of 2.01-4.0 μg/mL)”. For the same molecule, the “MIC, C. krusei ATCC 6258” value in the assay on C. krusei (Table 3a) and in the assay on C. krusei (Table 3b (additional results)) was “A (MIC of 0.25-1.0 μg/mL)” each time. Moreover, the “MIC, C. parapsilosis ATCC 22019” value against C. parapsilosis (Table 3a) and against C. parapsilosis (Table 3b (additional results)) was “A (MIC of 0.25-1.0 μg/mL)” in each case. Also, the half-maximal inhibitory concentration (IC50) was in the range of 1 to 5 nM on human (hACC2) (Table 2a); 1 to 5 nM at human (hACC2) (Table 2b, additional results); 1 to 5 nM on fungal (fACC2) (Table 2a); 1 to 5 nM on fungal (fACC2) (Table 2b, additional results).

In the case of `COCCO[C@@H](Cn1c(=O)n(C(C)(C)C(=O)NC2CCCCC2)c(=O)c2c(C)c(-n3nccn3)sc21)c1cc(F)ccc1OC` [Compound I-103], the MIC in the assay on C. albicans (Table 3a) is 1.1 to 2 µg/mL (≈ 1.71 to 3.11 µM); in the assay on C. albicans (Table 3b (additional results)), 1.01 to 2 µg/mL (≈ 1.57 to 3.11 µM); with C. krusei (Table 3a) it was 0.25 to 1 µg/mL (≈ 0.389 to 1.56 µM); with C. krusei (Table 3b (additional results)) it was 0.25 to 1 µg/mL (≈ 0.389 to 1.56 µM); with C. parapsilosis (Table 3a) it was 0.25 to 1 µg/mL (≈ 0.389 to 1.56 µM); in the assay with C. parapsilosis (Table 3b (additional results)) it was 0.25 to 1 µg/mL (≈ 0.389 to 1.56 µM). Further, the 50% inhibitory concentration (IC50) is 10 to 40 nM at human (hACC2) (Table 2a); 10 to 40 nM at human (hACC2) (Table 2b, additional results); 1 to 5 nM on fungal (fACC2) (Table 2a); 1 to 5 nM at fungal (fACC2) (Table 2b, additional results).

`COc1ccc(F)cc1[C@H](Cn1c(=O)n(C(C)(C)C(=O)NC(C)C)c(=O)c2c(C)c(-n3nccn3)sc21)OCCC(C)=O` [Compound I-104]: the MIC was 0.25 to 1 µg/mL (≈ 0.407 to 1.63 µM) in the assay with C. albicans (Table 3a); 0.25 to 1 µg/mL (≈ 0.407 to 1.63 µM) with C. albicans (Table 3b (additional results)); 0.06 to 0.24 µg/mL (≈ 0.0976 to 0.39 µM) with C. krusei (Table 3a); 0.25 to 1 µg/mL (≈ 0.407 to 1.63 µM) with C. krusei (Table 3b (additional results)); 0.25 to 1 µg/mL (≈ 0.407 to 1.63 µM) with C. parapsilosis (Table 3a); 0.25 to 1 µg/mL (≈ 0.407 to 1.63 µM) with C. parapsilosis (Table 3b (additional results)). For the same molecule, the IC50 is 1 to 5 nM on human (hACC2) (Table 2a); 1 to 5 nM on human (hACC2) (Table 2b, additional results); 1 to 5 nM at fungal (fACC2) (Table 2a); 1 to 5 nM on fungal (fACC2) (Table 2b, additional results).
